Results as given in patent US10106538B2, “Inhibitors of protein kinases” (PRINCETON DRUG DISCOVERY INC, priority 2015, dated 2018).

Key:
Experiment in all cases: Off-chip Mobility Shift Assay (MSA) kinase inhibition
Format in all cases: biochemical
JNK2 = target: T1, JNK2 (Homo sapiens, UniProt P45984); conditions: inhibitor concentration 0.1 μM
T1 construct: purchased Carna Biosciences
Method: (§1) Off-chip Mobility Shift Assay (MSA) by Cama Biosciences, Inc (Natick, Mass.) a used for measuring the kinase activity and inhibition. • 1) The 5 μL of x4 compound solution, 5 μL of x4 Substrate/ATP/Metal solution, and 10 μL of x2 kinase solution were prepared with assay buffer (20 mM HEPES, 0.01% Triton X100, 2 mM DTT, pH 7.5) and mixed and incubated in a well of polypropylene 384 well microplate for 1 or 5 hour(s)* at room temperature.

MET = target: T2, MET (Homo sapiens, UniProt P08581); conditions: for inhibition at 0.1 µM: inhibitor concentration 0.1 μM
T2 construct: purchased Carna Biosciences
Method: as §1

EGFR = target: T3, EGFR (Homo sapiens, UniProt P00533); conditions: for inhibition at 0.1 µM: inhibitor concentration 0.1 μM
T3 construct: purchased Carna Biosciences
Method: as §1

FGFR2 = target: T4, FGFR2 (Homo sapiens, UniProt P21802); conditions: for inhibition at 0.1 µM: inhibitor concentration 0.1 μM
T4 construct: purchased Carna Biosciences
Method: as §1

FAK = target: T5, FAK (Homo sapiens, UniProt Q05397); conditions: inhibitor concentration 0.1 μM
T5 construct: purchased Carna Biosciences, Inc
Method: as §1

ABL(T315I) = target: T6, ABL(T315I) (Homo sapiens, UniProt P00519, T315I); conditions: inhibitor concentration 0.1 μM
T6 construct: purchased Carna Biosciences
Method: as §1

AXL = target: T7, AXL (Homo sapiens, UniProt P30530); conditions: inhibitor concentration 0.1 μM
T7 construct: purchased Carna Biosciences
T7 sequence (P30530 26-894): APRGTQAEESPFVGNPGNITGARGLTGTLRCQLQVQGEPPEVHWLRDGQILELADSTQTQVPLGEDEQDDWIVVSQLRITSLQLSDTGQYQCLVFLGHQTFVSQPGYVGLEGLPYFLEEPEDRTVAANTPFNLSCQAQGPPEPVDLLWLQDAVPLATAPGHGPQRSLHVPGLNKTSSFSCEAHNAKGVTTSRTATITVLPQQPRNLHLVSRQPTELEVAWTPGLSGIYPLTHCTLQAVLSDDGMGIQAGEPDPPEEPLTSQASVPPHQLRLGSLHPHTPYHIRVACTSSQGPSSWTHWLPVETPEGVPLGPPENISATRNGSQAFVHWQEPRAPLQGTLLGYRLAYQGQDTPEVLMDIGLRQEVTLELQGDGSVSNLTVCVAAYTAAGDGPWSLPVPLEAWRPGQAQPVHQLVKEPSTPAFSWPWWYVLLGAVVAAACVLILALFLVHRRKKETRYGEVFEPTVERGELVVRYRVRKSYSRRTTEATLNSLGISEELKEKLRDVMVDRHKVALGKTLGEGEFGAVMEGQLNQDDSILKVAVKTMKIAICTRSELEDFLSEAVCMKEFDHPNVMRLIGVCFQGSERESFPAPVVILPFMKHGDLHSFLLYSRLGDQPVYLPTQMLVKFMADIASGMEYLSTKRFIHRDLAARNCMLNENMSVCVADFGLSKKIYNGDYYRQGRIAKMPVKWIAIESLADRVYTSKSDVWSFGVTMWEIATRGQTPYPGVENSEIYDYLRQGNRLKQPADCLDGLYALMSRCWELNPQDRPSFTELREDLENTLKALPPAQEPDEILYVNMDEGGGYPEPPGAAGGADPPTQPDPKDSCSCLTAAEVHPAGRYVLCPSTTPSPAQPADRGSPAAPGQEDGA
Method: as §1

LCK = target: T8, LCK (Homo sapiens, UniProt P06239); conditions: for inhibition at 0.1 µM: inhibitor concentration 0.1 μM
T8 construct: purchased Carna Biosciences
Method: as §1

JNK3 = target: T9, JNK3 (Homo sapiens, UniProt P53779); conditions: inhibitor concentration 0.1 μM
T9 construct: purchased Carna Biosciences, Inc
Method: as §1

MAPKAPK2 = target: T10, MAPKAPK2 (Homo sapiens, UniProt P49137); conditions: inhibitor concentration 0.1 μM
T10 construct: purchased Carna Biosciences
Method: as §1

ALK = target: T11, ALK (Homo sapiens, UniProt Q9UM73); conditions: for inhibition at 0.1 µM: inhibitor concentration 0.1 μM
T11 construct: purchased Carna Biosciences
Method: as §1

PDGFRβ = target: T12, PDGFRβ (Homo sapiens, UniProt P09619); conditions: for inhibition at 0.1 µM: inhibitor concentration 0.1 μM
T12 construct: purchased Carna Biosciences
Method: as §1

RAF1 = target: T13, RAF1 (Homo sapiens, UniProt P04049); conditions: for inhibition at 0.1 µM: inhibitor concentration 0.1 μM
T13 construct: purchased Carna Biosciences
T13 sequence (P04049 whole entry): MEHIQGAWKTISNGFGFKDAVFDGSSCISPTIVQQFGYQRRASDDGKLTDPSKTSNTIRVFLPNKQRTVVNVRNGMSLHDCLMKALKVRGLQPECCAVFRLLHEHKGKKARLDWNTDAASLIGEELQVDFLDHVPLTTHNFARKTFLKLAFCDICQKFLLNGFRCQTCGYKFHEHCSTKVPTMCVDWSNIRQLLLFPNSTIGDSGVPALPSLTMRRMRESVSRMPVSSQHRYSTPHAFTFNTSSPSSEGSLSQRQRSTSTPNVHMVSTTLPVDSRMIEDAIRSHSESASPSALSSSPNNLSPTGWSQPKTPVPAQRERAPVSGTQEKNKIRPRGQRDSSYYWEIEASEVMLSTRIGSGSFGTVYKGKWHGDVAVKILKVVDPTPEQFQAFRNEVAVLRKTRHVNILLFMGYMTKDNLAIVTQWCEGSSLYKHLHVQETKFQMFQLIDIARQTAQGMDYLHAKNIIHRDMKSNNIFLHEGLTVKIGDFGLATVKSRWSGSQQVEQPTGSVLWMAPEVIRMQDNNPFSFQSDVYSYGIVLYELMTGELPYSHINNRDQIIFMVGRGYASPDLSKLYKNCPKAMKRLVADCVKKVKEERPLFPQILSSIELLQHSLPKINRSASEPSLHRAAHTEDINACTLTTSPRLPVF
Method: as §1

MNK2 = target: T14, MNK2 (Homo sapiens, UniProt Q9HBH9); conditions: for inhibition at 0.1 µM: inhibitor concentration 0.1 μM
T14 construct: purchased Carna Biosciences
Method: as §1

AKT2 = target: T15, AKT2 (Homo sapiens, UniProt P31751); conditions: inhibitor concentration 0.1 μM
T15 construct: purchased Carna Biosciences
Method: as §1

JNK1 = target: T16, JNK1 (Homo sapiens, UniProt P45983); conditions: inhibitor concentration 0.1 μM
T16 construct: purchased Carna Biosciences
T16 sequence (P45983 whole entry): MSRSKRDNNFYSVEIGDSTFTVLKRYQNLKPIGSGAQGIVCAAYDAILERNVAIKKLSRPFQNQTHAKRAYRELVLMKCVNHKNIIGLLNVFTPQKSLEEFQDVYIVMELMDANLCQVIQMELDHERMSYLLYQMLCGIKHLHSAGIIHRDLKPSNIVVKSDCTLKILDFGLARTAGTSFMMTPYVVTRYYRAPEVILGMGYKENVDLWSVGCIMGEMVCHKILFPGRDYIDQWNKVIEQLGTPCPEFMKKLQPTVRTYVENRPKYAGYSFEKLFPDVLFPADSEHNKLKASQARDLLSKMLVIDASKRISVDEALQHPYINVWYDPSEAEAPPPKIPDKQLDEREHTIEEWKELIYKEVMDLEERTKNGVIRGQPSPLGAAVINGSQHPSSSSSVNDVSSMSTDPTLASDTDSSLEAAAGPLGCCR
Method: as §1

JAK1 = target: T17, JAK1 (Homo sapiens, UniProt P23458); conditions: for inhibition at 0.1 µM: inhibitor concentration 0.1 μM
T17 construct: purchased Carna Biosciences
T17 sequence (P23458 whole entry): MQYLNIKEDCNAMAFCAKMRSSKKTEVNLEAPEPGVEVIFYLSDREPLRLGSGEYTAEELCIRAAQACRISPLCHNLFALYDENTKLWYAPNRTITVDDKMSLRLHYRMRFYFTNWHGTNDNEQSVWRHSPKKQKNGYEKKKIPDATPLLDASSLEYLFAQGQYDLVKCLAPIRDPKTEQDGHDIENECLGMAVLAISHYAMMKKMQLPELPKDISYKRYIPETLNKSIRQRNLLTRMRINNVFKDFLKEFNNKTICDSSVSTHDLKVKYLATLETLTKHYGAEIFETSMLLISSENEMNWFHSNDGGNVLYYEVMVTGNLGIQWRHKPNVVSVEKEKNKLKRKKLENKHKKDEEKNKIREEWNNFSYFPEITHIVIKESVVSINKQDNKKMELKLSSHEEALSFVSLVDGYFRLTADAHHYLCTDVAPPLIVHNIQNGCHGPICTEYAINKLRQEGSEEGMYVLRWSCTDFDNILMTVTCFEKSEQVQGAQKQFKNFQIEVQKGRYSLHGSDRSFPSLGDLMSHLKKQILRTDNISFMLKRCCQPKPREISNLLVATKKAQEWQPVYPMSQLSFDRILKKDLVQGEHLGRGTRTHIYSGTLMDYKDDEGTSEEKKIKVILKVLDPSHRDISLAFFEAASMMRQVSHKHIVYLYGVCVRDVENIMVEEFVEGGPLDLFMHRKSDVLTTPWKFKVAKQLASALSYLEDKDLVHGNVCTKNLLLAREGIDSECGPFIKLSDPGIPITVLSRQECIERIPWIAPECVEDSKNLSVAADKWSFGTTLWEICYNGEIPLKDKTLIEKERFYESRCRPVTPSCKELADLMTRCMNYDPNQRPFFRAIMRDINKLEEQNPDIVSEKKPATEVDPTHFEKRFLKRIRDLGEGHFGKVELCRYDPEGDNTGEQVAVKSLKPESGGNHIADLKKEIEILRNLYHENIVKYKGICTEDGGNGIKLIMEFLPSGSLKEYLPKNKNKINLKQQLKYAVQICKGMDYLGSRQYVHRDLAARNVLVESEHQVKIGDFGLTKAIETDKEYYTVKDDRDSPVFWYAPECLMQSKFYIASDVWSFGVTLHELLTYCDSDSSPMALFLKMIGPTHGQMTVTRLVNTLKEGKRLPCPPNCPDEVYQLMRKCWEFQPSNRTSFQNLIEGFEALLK
Method: as §1

ABL(E255K) = target: T18, ABL(E255K) (Homo sapiens, UniProt P00519, E255K); conditions: inhibitor concentration 0.1 μM
T18 construct: purchased Carna Biosciences
Method: as §1

IGF1R = target: T19, IGF1R (Homo sapiens, UniProt P08069); conditions: for inhibition at 0.1 µM: inhibitor concentration 0.1 μM
T19 construct: purchased Carna Biosciences
Method: as §1

LYNb = target: T20, LYNb (Homo sapiens, UniProt P07948); conditions: for inhibition at 0.1 µM: inhibitor concentration 0.1 μM
T20 construct: purchased Carna Biosciences
T20 sequence (P07948 1-491 isoform P07948-2): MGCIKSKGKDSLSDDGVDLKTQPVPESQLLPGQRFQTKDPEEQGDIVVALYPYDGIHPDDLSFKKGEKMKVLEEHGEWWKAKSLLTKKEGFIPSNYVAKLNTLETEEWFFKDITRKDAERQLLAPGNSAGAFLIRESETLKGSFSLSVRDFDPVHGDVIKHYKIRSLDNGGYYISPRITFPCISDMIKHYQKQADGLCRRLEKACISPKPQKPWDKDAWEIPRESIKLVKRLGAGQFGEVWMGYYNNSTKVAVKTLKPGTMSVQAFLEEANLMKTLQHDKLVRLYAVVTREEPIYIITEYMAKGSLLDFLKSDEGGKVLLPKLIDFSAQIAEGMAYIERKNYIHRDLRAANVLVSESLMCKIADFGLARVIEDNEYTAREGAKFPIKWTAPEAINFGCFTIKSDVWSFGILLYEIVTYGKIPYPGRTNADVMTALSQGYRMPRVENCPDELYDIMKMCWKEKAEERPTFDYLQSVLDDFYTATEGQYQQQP
Method: as §1

AKT3 = target: T21, AKT3 (Homo sapiens, UniProt Q9Y243); conditions: inhibitor concentration 0.1 μM
T21 construct: purchased Carna Biosciences
T21 sequence (Q9Y243 whole entry): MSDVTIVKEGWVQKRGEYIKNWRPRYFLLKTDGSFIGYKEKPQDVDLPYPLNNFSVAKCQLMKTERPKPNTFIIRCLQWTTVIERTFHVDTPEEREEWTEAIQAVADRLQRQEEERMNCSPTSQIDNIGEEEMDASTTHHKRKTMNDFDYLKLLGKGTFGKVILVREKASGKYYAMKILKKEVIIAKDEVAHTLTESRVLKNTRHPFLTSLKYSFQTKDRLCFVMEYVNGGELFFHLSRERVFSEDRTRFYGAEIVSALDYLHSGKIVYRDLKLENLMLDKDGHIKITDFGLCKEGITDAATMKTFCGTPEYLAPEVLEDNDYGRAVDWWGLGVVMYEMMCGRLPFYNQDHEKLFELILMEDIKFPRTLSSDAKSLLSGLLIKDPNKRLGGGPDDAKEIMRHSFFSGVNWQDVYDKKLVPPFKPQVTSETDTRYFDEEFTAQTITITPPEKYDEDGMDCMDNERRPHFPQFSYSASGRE
Method: as §1

Erk5 = target: T22, Erk5 (Homo sapiens, UniProt Q13164); conditions: for inhibition at 0.1 µM: inhibitor concentration 0.1 μM
T22 construct: purchased Carna Biosciences
Method: as §1

ABL = target: T23, ABL (Homo sapiens, UniProt P00519); conditions: for inhibition at 0.1 µM: inhibitor concentration 0.1 μM
T23 construct: purchased Carna Biosciences
Method: as §1

EGFR(L858R) = target: T24, EGFR(L858R) (Homo sapiens, UniProt P00533, L858R); conditions: inhibitor concentration 0.1 μM
T24 construct: purchased Carna Biosciences
Method: as §1

KIT(D816V) = target: T25, KIT(D816V) (Homo sapiens, UniProt P10721, D816V); conditions: for inhibition at 0.1 µM: inhibitor concentration 0.1 μM
T25 construct: purchased Carna Biosciences
T25 sequence (P10721 26-976 D816V): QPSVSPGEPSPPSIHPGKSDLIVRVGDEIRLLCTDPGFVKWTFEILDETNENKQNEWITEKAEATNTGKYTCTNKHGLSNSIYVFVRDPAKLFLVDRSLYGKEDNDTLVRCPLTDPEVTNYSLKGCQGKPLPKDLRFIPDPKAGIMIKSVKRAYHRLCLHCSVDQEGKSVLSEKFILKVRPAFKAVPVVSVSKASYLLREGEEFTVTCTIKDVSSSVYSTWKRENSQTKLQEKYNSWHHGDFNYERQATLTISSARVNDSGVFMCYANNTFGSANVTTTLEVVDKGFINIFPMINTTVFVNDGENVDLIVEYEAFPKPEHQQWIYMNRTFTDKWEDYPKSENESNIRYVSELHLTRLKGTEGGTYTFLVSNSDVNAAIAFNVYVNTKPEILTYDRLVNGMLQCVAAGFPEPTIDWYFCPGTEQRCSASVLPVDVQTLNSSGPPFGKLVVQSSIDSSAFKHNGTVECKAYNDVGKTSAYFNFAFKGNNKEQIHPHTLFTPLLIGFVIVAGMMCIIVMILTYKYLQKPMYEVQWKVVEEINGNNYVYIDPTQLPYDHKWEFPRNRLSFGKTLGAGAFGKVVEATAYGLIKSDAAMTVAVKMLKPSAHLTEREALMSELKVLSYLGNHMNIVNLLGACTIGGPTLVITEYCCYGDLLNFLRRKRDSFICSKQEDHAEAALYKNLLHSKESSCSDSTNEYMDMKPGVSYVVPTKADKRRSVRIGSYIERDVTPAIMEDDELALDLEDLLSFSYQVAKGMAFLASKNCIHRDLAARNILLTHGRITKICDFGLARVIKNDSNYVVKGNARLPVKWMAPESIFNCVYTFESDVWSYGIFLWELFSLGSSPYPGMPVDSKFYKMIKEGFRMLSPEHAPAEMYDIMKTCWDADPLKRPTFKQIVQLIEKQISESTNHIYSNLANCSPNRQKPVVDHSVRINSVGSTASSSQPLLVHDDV
Method: as §1

BRAF = target: T26, BRAF (Homo sapiens, UniProt P15056)
T26 construct: purchased Carna Biosciences
T26 sequence (P15056 whole entry): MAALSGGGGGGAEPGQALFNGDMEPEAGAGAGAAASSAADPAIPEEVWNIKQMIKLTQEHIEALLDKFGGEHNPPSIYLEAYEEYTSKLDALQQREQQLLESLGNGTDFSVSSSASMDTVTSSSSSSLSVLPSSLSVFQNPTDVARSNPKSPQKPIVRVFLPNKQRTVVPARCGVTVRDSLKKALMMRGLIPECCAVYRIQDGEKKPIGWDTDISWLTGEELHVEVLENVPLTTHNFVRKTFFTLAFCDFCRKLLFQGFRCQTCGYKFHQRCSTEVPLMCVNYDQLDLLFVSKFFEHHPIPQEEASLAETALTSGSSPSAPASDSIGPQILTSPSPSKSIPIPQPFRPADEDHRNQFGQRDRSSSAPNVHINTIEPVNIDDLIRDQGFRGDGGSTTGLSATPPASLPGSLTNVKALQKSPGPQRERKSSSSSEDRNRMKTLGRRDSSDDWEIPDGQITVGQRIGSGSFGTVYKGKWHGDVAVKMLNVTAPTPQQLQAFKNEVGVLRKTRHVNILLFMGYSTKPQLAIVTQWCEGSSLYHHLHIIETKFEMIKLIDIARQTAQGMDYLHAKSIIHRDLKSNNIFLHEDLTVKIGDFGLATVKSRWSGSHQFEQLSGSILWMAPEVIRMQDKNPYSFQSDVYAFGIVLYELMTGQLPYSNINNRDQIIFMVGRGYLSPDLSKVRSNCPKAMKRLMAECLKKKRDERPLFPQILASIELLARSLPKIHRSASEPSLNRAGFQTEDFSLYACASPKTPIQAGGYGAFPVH
Method: as §1

BRAF(V600E) = target: T27, BRAF(V600E) (Homo sapiens, UniProt P15056, V600E)
T27 construct: purchased Carna Biosciences
T27 sequence (P15056 whole entry V600E): as the sequence (P15056 whole entry) above, with V600E counted along it
Method: as §1

[1] = inhibitor concentration 0.01 μM, 0.01 µM
[2] = inhibitor concentration 0.01 μM

inhibition at 0.1 µM (JNK2) [%]	inhibition at 0.1 µM (MET) [%]	inhibition at 0.1 µM (EGFR) [%]	inhibition at 0.1 µM (FGFR2) [%]	inhibition at 0.1 µM (FAK) [%]	inhibition at 0.1 µM (ABL(T315I)) [%]	inhibition at 0.1 µM (AXL) [%]	inhibition at 0.1 µM (LCK) [%]	inhibition at 0.1 µM (JNK3) [%]	inhibition at 0.1 µM (MAPKAPK2) [%]	inhibition at 0.1 µM (ALK) [%]	inhibition at 0.1 µM (PDGFRβ) [%]	inhibition at 0.1 µM (RAF1) [%]	inhibition at 0.1 µM (MNK2) [%]	inhibition at 0.1 µM (AKT2) [%]	inhibition at 0.1 µM (JNK1) [%]	inhibition at 0.1 µM (JAK1) [%]	inhibition at 0.1 µM (ABL(E255K)) [%]	inhibition at 0.1 µM (IGF1R) [%]	inhibition at 0.1 µM (LYNb) [%]	SMILES	other results
< 30	< 30	< 30	< 30	< 30	< 30	< 30	< 30	< 30	< 30	< 30	< 30	> 30	< 30	< 30	< 30	> 30	< 30	< 30	< 30	O=C(c1c(F)ccc(NS(=O)(=O)CC(O)CO)c1F)c1c[nH]c2ncc(-c3ccc(Cl)cc3)cc12 (stereo not drawn) [200-73, N-[3-[5-(4-chlorophenyl)-lH-pyrrolo [2,3-b]pyridine-3-carbonyl]-2,4-difluorophenyl]-2,3-dihydroxypropane-l-sulfonamide]	inhibition at 0.1 µM (BRAF; inhibitor concentration 0.1 μM): < 30%; inhibition at 0.1 µM (AKT3): < 30%; inhibition at 0.1 µM (Erk5): < 30%; inhibition at 0.1 µM (ABL): < 30%; inhibition at 0.1 µM (EGFR(L858R)): < 30%; inhibition at 0.1 µM (KIT(D816V)): < 30%; inhibition at 0.1 µM (BRAF(V600E); inhibitor concentration 0.1 μM): < 30%
																				C/C=C/S(=O)(=O)Nc1ccc(F)c(C(=O)c2c[nH]c3ncc(-c4ccc(Cl)cc4)cc23)c1F [200-93b]	LCK inhibition (LCK; [1]): >20%; PDGFRβ inhibition (PDGFRβ; [1]): <20%; RAF1 inhibition (RAF1; [1]): >20%; JAK1 inhibition (JAK1; [1]): <20%; BRAF inhibition (BRAF; [1]): <20%; KIT(D816V) inhibition (KIT(D816V); [1]): <20%; BRAF(V600E) inhibition (BRAF(V600E); [1]): <20%
< 30	< 30	< 30	< 30	< 30	< 30	< 30	> 30	< 30	< 30	< 30	< 30	> 30	> 30	< 30	< 30	< 30	< 30	< 30	> 30	CC(=O)CS(=O)(=O)Nc1ccc(F)c(C(=O)c2c[nH]c3ncc(-c4ccc(Cl)cc4)cc23)c1F [200-117]	inhibition at 0.1 µM (AKT3): < 30%; inhibition at 0.1 µM (Erk5): < 30%; inhibition at 0.1 µM (ABL): < 30%; inhibition at 0.1 µM (EGFR(L858R)): < 30%; inhibition at 0.1 µM (KIT(D816V)): < 30%
							> 50				< 50					> 50			> 50	O=C(c1c(F)ccc(NS(=O)(=O)CCCO)c1F)c1c[nH]c2ncc(-c3ccc(Cl)cc3)cc12 [200-17, N-[3-[5-(4-chlorophenyl)-1H-pyrrolo[2,3-b]pyridine-3-carbonyl]-2,4-difluorophenyl]-3-hydroxypropane-1-sulfonamide]	inhibition at 1 µM (MET; inhibitor concentration 1 μM): > 50%; inhibition at 1 µM (EGFR; inhibitor concentration 1 μM): > 50%; inhibition at 1 µM (FGFR2; inhibitor concentration 1 μM): > 50%; inhibition at 0.01 µM (LCK; [2]): > 30%; inhibition at 1 µM (LCK; inhibitor concentration 1 μM): > 50%; inhibition at 1 µM (ALK; inhibitor concentration 1 μM): > 50%; inhibition at 0.01 µM (PDGFRβ; [2]): < 30%; inhibition at 1 µM (PDGFRβ; inhibitor concentration 1 μM): > 50%; inhibition at 1 µM (RAF1; inhibitor concentration 1 μM): > 50%; inhibition at 1 µM (MNK2; inhibitor concentration 1 μM): > 50%; inhibition at 0.01 µM (JAK1; [2]): > 30%; inhibition at 1 µM (JAK1; inhibitor concentration 1 μM): > 50%; inhibition at 1 µM (IGF1R; inhibitor concentration 1 μM): < 50%; inhibition at 0.01 µM (LYNb; [2]): < 30%; inhibition at 1 µM (LYNb; inhibitor concentration 1 μM): > 50%; inhibition at 1 µM (BRAF; inhibitor concentration 1 μM): < 50%; inhibition at 1 µM (Erk5; inhibitor concentration 1 μM): > 50%; inhibition at 1 µM (ABL; inhibitor concentration 1 μM): < 50%; inhibition at 1 µM (KIT(D816V); inhibitor concentration 1 μM): > 50%; inhibition at 1 µM (BRAF(V600E); inhibitor concentration 1 μM): > 50%

SMILES	inhibition at 0.1 µM (JNK2) [%]	inhibition at 0.1 µM (MET) [%]	inhibition at 0.1 µM (EGFR) [%]	inhibition at 0.1 µM (FGFR2) [%]	inhibition at 0.1 µM (FAK) [%]	inhibition at 0.1 µM (ABL(T315I)) [%]	inhibition at 0.1 µM (AXL) [%]	inhibition at 0.1 µM (LCK) [%]	inhibition at 0.1 µM (JNK3) [%]	inhibition at 0.1 µM (MAPKAPK2) [%]	inhibition at 0.1 µM (ALK) [%]	inhibition at 0.1 µM (PDGFRβ) [%]	inhibition at 0.1 µM (RAF1) [%]	inhibition at 0.1 µM (MNK2) [%]	inhibition at 0.1 µM (AKT2) [%]	inhibition at 0.1 µM (JNK1) [%]	inhibition at 0.1 µM (JAK1) [%]	inhibition at 0.1 µM (ABL(E255K)) [%]	inhibition at 0.1 µM (IGF1R) [%]	inhibition at 0.1 µM (LYNb) [%]	other results
CC(O)CS(=O)(=O)Nc1ccc(F)c(C(=O)c2c[nH]c3ncc(-c4ccc(Cl)cc4)cc23)c1F (stereo not drawn) [200-115]	< 30	< 30	< 30	< 30	< 30	< 30	< 30	> 30	< 30	< 30	< 30	< 30	> 30	< 30	< 30	< 30	< 30	< 30	< 30	< 30	inhibition at 0.1 µM (AKT3): < 30%; inhibition at 0.1 µM (Erk5): < 30%; inhibition at 0.1 µM (ABL): < 30%; inhibition at 0.1 µM (EGFR(L858R)): < 30%; inhibition at 0.1 µM (KIT(D816V)): < 30%
